# Earlier results as cited in article PMC11887077 (BMC Cancer, 2025).
# Tested on: NRP1
# Conditions: in vitro
substance,measurement,value
CLKADK [CK2],affinity with NRP1 compared with CK3,higher affinity
